In EPA's CvTdb concentration-time database:

What was measured:
[1] = tested on: Rat; assay: concentration in plasma after dosing; conditions: 2 h; dosed: 2-Methyltetrahydrofuran; 40 mg/kg; iv; Male; Harlan Sprague Dawley
[2] = tested on: Rat; assay: concentration in plasma after dosing; conditions: 0.5 h; dosed: 2-Methyltetrahydrofuran; 40 mg/kg; iv; Female; Harlan Sprague Dawley
[3] = tested on: Rat; assay: concentration in liver after dosing; conditions: 12 h; dosed: Fluorotelomer alcohol 8+2; 80 mg/kg; oral; Female; Harlan Sprague Dawley
[4] = tested on: Rat; assay: concentration in liver after dosing; conditions: 3 h; dosed: Fluorotelomer alcohol 8+2; 80 mg/kg; oral; Female; Harlan Sprague Dawley
[5] = tested on: Rat; assay: concentration in plasma after dosing; conditions: 3 h; dosed: Fluorotelomer alcohol 8+2; 12 mg/kg; oral; Male; Harlan Sprague Dawley
[6] = tested on: Rat; assay: concentration in kidney after dosing; conditions: 3 h; dosed: Fluorotelomer alcohol 8+2; 24 mg/kg; oral; Male; Harlan Sprague Dawley
[7] = tested on: Rat; assay: concentration in kidney after dosing; conditions: 6 h; dosed: Perfluorohexanoic Acid; 80 mg/kg; oral; Male; Harlan Sprague Dawley
[8] = tested on: Rat; assay: concentration in plasma after dosing; conditions: 24 h; dosed: Gemfibrozil; 50 mg/kg; oral; Male; Sprague-Dawley
[9] = tested on: Rat; assay: concentration in plasma after dosing; conditions: 0.5 h; dosed: Gemfibrozil; 50 mg/kg; oral; Male; Sprague-Dawley

CC1CCCO1 (centres undefined) [2-Methyltetrahydrofuran]
concentration in plasma [1]: 12.1 µg/mL
concentration in plasma [2]: 27.2 µg/mL

O=C(O)CCC(F)(F)C(F)(F)C(F)(F)C(F)(F)C(F)(F)C(F)(F)C(F)(F)F [Fluorotelomer acid 7+3]
concentration in liver [3]: 7200 ng/g
concentration in liver [4]: 10700 ng/g
concentration in plasma [5]: 0.866 µg/mL
concentration in kidney [6]: 1320 ng/g

O=C(O)C(F)(F)C(F)(F)C(F)(F)C(F)(F)C(F)(F)F [Perfluorohexanoic Acid]
concentration in kidney [7]: 16900 ng/g

Cc1ccc(C)c(OCCCC(C)(C)C(=O)O)c1 [Gemfibrozil]
concentration in plasma [8]: 0.846 µg/mL
concentration in plasma [9]: 7.8 µg/mL
